Data set [1] concerns the target T1, human Ret TKR-catalytic domain (Homo sapiens, UniProt P07949).
T1 construct: human Ret TKR-catalytic domain; purchased ProQinase
T1 sequence (P07949 724-1016 limits assumed): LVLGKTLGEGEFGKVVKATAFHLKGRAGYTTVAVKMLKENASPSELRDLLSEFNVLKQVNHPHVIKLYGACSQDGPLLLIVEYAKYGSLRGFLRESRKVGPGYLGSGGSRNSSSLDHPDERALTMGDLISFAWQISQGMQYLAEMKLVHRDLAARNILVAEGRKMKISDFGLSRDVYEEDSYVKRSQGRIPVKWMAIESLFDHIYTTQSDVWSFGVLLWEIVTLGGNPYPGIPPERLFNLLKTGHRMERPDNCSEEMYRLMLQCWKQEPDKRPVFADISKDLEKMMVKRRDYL
Description: DELFIA Ret Kinase Assay (cell-free). The format is biochemical. How it is done:
In order to evidence and quantify inhibitory activity on Ret tyrosine kinase, the most representative compounds of the invention were tested with a dedicated DELFIA kinase assay, using a human tyrosine-kinase receptor (Ret TKR) recombinant form (human Ret TKR-catalytic domain) available from ProQinase as the tyrosine kinase.
After 10 min. incubation at 30° C., the kinase reactions were worked up as in the DELFIA cKit Kinase Assay.

For data set [2], the target named is T2, Human cKit Tyrosine Kinase Receptor (human cKit RTK-catalytic domain) (Homo sapiens, UniProt P10721).
T2 construct: human cKit RTK-catalytic domain; purchased Panvera-Invitrogen P3080
T2 sequence (P10721 589-937 limits assumed): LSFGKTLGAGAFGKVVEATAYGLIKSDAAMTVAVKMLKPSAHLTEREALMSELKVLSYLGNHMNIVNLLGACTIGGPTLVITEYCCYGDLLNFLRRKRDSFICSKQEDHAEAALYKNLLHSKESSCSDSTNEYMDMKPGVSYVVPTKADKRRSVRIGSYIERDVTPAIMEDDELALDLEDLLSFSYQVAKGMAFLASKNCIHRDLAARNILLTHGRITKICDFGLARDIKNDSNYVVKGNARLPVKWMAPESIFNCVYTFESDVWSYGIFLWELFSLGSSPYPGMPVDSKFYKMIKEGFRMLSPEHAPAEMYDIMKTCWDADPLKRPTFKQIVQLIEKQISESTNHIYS
Description: DELFIA cKit Tyrosine Kinase Assay (cell-free). In kind it is biochemical. How it is done:
The compounds of the invention were tested with a dedicated cell-free kinase assay for the evaluation of the inhibiting activity on tyrosine kinases.
In more detail, the assay was a DELFIA™ (Dissociation Enhanced Time-Resolved Fluorometric Assay) Tyrosine Kinase Assay™ (PerkinElmer), a highly sensitive, reproducible ELISA assay that allows to evaluate the activity of a tyrosine kinase.
Human cKit Tyrosine Kinase Receptor (human cKit RTK-catalytic domain), commercially available from Panvera-Invitrogen (Cat. N^o. P3080), was used as the tyrosine kinase.
After 1 hour incubation at room temperature and three washings with 1×DELFIA Wash Buffer (PerkinElmer), the phosphotyrosine residues of the acceptor were detected with an europium-labelled anti-phosphotyrosine monoclonal antibody (DELFIA Eu-N1 labelled anti-phosphotyrosine antibody PT66, PerkinElmer) and, after a further hour incubation at room temperature and three washings with 1×DELFIA Wash Buffer, overall phosphorylation of biotinylated polyGAT was determined by addition of Enhancement Solution (PerkinElmer) and fluorimetric analysis of the plates (α-Fusion FP HT, PerkinElmer) in the “Time-Resolved Fluorescence” mode.

Data set [3] relates to NIH3T3^MEN2A(C634R) cells. Description: Survival curves by Coulter Counter cell count, 72 h. The conditions noted are these: Mus musculus, NIH3T3MEN2A, 72 h treatment, read-out: Cont at 72 h IC50. In kind it is cell-based, murine. How it is done:
(§1) NIH3T3 Murine fibroblasts and the transfected line NIH3T3^MEN2A(C634R) were treated with increasing concentrations of the compounds of the invention for 72 h. Survival curves were obtained by Coulter Counter cell count. IC50s calculated from said curves are reported in Table 9: the higher sensitivity of the oncoprotein-expressing cell line is evident. The reversal of the morphologically transformed phenotype of NIH3T3^MEN2A (C634R) cells in the presence of the compounds of the invention was evaluated by contrast phase microscopy after 24 h treatment and photographically documented.

Data set [4] relates to NIH3T3^MEN2A(C634R) cells. Description: Reversal of morphologically transformed phenotype, contrast phase microscopy, 24 h. The format is cell-based, murine. The conditions noted are these: 24 h treatment; for minimal effective concentration: Mus musculus, NIH3T3MEN2A, read-out: Morphology a 24 h: concentration from which reversal was observed. How it is done: as §1
[5] abbreviates: cell-free DELFIA, 50 ng Ret TKR, 3 μM ATP, 10 min. at 30° C., read-out: IC50.
Where [6] appears, read: cell-free DELFIA, 25 ng cKit TKR, 150 μM ATP, 20 minutes at 30° C., read-out: IC50.

SMILES strings stand for the structures. Like-named read-outs stand apart in the source and are kept apart here.

The molecule `CCCCCCNC(=O)Oc1ccc(/C=C2/C(=O)Nc3cc(OC)c(OC)cc32)cc1` [A.4, n-Hexyl Carbamic Acid, (E)-4-(5,6-dimethoxy-2-oxo-1,2-dihydro-indol-3-ylidenemethyl)phenyl Ester] gave a melting point of 168 to 170 °C. The IC50 in data set [1] (setting [5]) is 5.73 µM. Further, in data set [2] (setting [6]), the IC50 turned out to be 0.135 µM.

For `COc1cc2c(cc1OC)/C(=C/c1ccc(OC(=O)c3cccn3C)cc1)C(=O)N2` [G.3, 1-Methyl-1H-pyrrole-2-carboxylic Acid, (Z)-4-(5,6-dimethoxy-2-oxo-1,2-dihydro-indol-3-ylidenemethyl)phenyl Ester], the concentration for half-maximal inhibition (IC50) was 6.38 µM in data set [1] (setting [5]) and 2.65 µM in data set [2] (setting [6]).

`CCCCCCCCCC(=O)Oc1ccc(/C=C2/C(=O)Nc3cc(OC)c(OC)cc32)cc1` [Example F.1, n-decanoic Acid, (E)-4-(5,6-dimethoxy-2-oxo-1,2-dihydro-indol-3-ylidenemethyl)phenyl Ester] displayed a melting point of 138 to 140 °C.

Consider `COc1cc2c(cc1OC)/C(=C\c1ccc(OCCO)cc1)C(=O)N2` [D.1, (E) 3-[4-(2-hydroxyetoxy)benzylidene]-5,6-dimethoxy-1,3-dihydro-indol-2-one], for which the 50% inhibitory concentration (IC50) in data set [1] (setting [5]) came to 1.12 µM; in data set [2] (setting [6]) it was 3.63 µM; in data set [3], 4.3 ± 0.6 µM. Also, the “Morphology a 24 h” value in data set [4] was “REVERSAL”. Further, in data set [4], the minimal effective concentration is at least 10 µM.

Turning to `COc1cc2c(cc1OC)/C(=C\c1ccc(OC(=O)N3CCN(c4ccccc4)CC3)cc1)C(=O)N2` [B.7, 4-Phenylpiperazine-1-carboxylic Acid, (E)-4-(5,6-dimethoxy-2-oxo-1,2-dihydro-indol-3-ylidenemethyl)phenyl Ester], the melting point is above 260 °C. In data set [1] (setting [5]), the IC50 was 3.23 µM. Also, the half-inhibitory concentration (IC50) in data set [2] (setting [6]) amounted to 2.78 µM.

Turning to `CCOP(=O)(OCC)Oc1ccc(/C=C2/C(=O)Nc3cc(OC)c(OC)cc32)cc1` [Example C.2, (E)-4-(5,6-dimethoxy-2-oxo-1,2-dihydro-indol-3-ylidenemethyl)phenyl Diethyl Phosphate], the values for the IC50 in data set [1], in data set [2] and in data set [3] were 63.5 µM, 5.09 µM and 1.7 ± 0.1 µM, respectively. In addition, the “Morphology a 24 h” value in data set [4] was “REVERSAL”. Also, the minimal effective concentration in data set [4] is at least 5 µM.

As to `COc1cc2c(cc1OC)/C(=C\c1ccc(OC(=O)c3ccccc3)cc1)C(=O)N2` [Example E.1, Benzoic Acid, (E)-4-(5,6-dimethoxy-2-oxo-1,2-dihydro-indol-3-ylidenemethyl)phenyl Ester], the melting point fell in the range of 228 to 230 °C.

`COc1cc2c(cc1OC)/C(=C\c1ccc(OC(=O)Nc3ccccc3)cc1)C(=O)N2` [Example A.1, Phenylcarbamic Acid, (E)-4-(5,6-dimethoxy-2-oxo-1,2-dihydro-indol-3-ylidenemethyl)phenyl Ester] yielded a melting point of 201 to 203 °C. The half-maximal inhibitory concentration (IC50) in data set [1] (setting [5]) is 8.39 µM. The half-maximal inhibitory concentration (IC50) in data set [2] (setting [6]) is 1.66 µM.

Consider `COc1cc2c(cc1OC)/C(=C\c1ccc(OC(=O)c3cnccn3)cc1)C(=O)N2` [F.5, Pyrazine-2-carboxylic Acid, (E)-4-(5,6-dimethoxy-2-oxo-1,2-dihydro-indol-3-ylidenemethyl)phenyl Ester], for which the melting point is above 250 °C.

In the case of `COc1cc2c(cc1OC)/C(=C\c1ccc(OC(=O)N3CCN(CCOCCO)CC3)cc1)C(=O)N2` [B.6, 4-[2-(2-Hydroxyethoxy)ethyl]piperazine-1-carboxylic Acid (E)-4-(5,6-dimethoxy-2-oxo-1,2-dihydro-indol-3-ylidenemethyl)phenyl Ester], the IC50 in data set [1] (setting [5]) came out at 6.65 µM; in data set [2] (setting [6]), 7.47 µM; in data set [3] it was 5.6 ± 1.8 µM. For the same molecule, the “Morphology a 24 h” value in data set [4] is reported as “REVERSAL”. For the same molecule, the minimal effective concentration in data set [4] is at least 10 µM.

As to `COc1cc2c(cc1OC)/C(=C\c1ccc(OC(=O)N(CCO)CCO)cc1)C(=O)N2`, the melting point was 183 to 185 °C.

For the molecule `COc1cc2c(cc1OC)/C(=C/c1ccc(OC(=O)CCCCNC(=O)OC(C)(C)C)cc1)C(=O)N2` [G.2, 5-tert-Butoxycarbonylamino-pentanoic Acid, (Z)-4-(5,6-dimethoxy-2-oxo-1,2-dihydro-indol-3-ylidenemethyl)phenyl Ester], the IC50 was 3.45 µM in data set [1] (setting [5]) and 0.77 µM in data set [2] (setting [6]).

For the molecule `COc1ccc(OC(=O)Oc2ccc(/C=C3\C(=O)Nc4cc(OC)c(OC)cc43)cc2)cc1` [Example H.2, (Z)-4-(5,6-dimethoxy-2-oxo-1,2-dihydro-indol-3-ylidenemethyl)phenyl, 4-methoxyphenyl Carbonate], the half-maximal inhibitory concentration (IC50) in data set [1] (setting [5]) was found to be 4.84 µM; in data set [2] (setting [6]), 0.28 µM.

On to `CCCCCCCCCC(=O)Oc1ccc(/C=C2\C(=O)Nc3cc(OC)c(OC)cc32)cc1` [Example G.1, n-decanoic Acid, (Z)-4-(5,6-dimethoxy-2-oxo-1,2-dihydro-indol-3-ylidenemethyl)phenyl Ester], for which the melting point fell in the range of 95 to 97 °C.

`COc1cc2c(cc1OC)/C(=C\c1ccc(OC(=O)c3cccn3C)cc1)C(=O)N2` [Example F.4, 1-Methyl-1H-pyrrole-2-carboxylic Acid, (E)-4-(5,6-dimethoxy-2-oxo-1,2-dihydro-indol-3-ylidenemethyl)phenyl Ester]: the melting point is 165 to 167 °C.

`COc1cc2c(cc1OC)/C(=C\c1ccc(OC(=O)CCCCNC(=O)OC(C)(C)C)cc1)C(=O)N2` [Example F.2, 5-tert-Butoxycarbonylamino-pentanoic Acid, (E)-4-(5,6-dimethoxy-2-oxo-1,2-dihydro-indol-3-ylidenemethyl)phenyl Ester] registered a melting point of 101 to 103 °C. For the same molecule, the IC50 in data set [1] (setting [5]) came out at 1.37 µM. Also, in data set [2] (setting [6]), the IC50 turned out to be 1.2 µM.

Molecule `COc1cc2c(cc1OC)/C(=C\c1ccc(OC(C)=O)cc1)C(=O)N2` [E.2, Acetic Acid, (E)-4-(5,6-dimethoxy-2-oxo-1,2-dihydro-indol-3-ylidenemethyl)phenyl Ester] displayed a melting point of 189 to 191 °C. Also, the IC50 in data set [3] turned out to be 1.5 ± 0.05 µM. In addition, in data set [4], the “Morphology a 24 h” value is on record as “REVERSAL” and the minimal effective concentration is at least 5 µM.

Molecule `COc1cc2c(cc1OC)/C(=C\c1ccc(OC(=O)N3CCOCC3)cc1)C(=O)N2` [B.2, Morpholine-4-carboxylic Acid, (E)-4-(5,6-dimethoxy-2-oxo-1,2-dihydro-indol-3-ylidenemethyl)phenyl Ester] returned a melting point of 255 to 257 °C.

For `COc1cc2c(cc1OC)/C(=C\c1ccc(OC(=O)NC(C)(C)C)cc1)C(=O)N2`, the melting point is 238 to 240 °C.

The molecule `COCCOCCOCC(=O)Oc1ccc(/C=C2/C(=O)Nc3cc(OC)c(OC)cc32)cc1` [F.3, [2-(2-Methoxy-ethoxy)-ethoxy]acetic Acid, (E)-4-(5,6-dimethoxy-2-oxo-1,2-dihydro-indol-3-ylidenemethyl)phenyl Ester] showed a melting point of 117 to 119 °C. Also, the IC50 in data set [1] (setting [5]) was 3.79 µM. For the same molecule, in data set [2] (setting [6]), the 50% inhibitory concentration (IC50) stood at 5.08 µM.

On to `COc1ccc(NC(=O)Oc2ccc(/C=C3/C(=O)Nc4cc(OC)c(OC)cc43)cc2)cc1`, for which the melting point lay in the range of 189 to 191 °C.

For `COc1cc2c(cc1OC)/C(=C\c1ccc(OC(=O)c3cccnc3)cc1)C(=O)N2` [E.3, Nicotinic Acid, (E)-4-(5,6-dimethoxy-2-oxo-1,2-dihydro-indol-3-ylidenemethyl)phenyl Ester], the melting point was 227 to 229 °C.

The record behind these values is patent publication US20050209195A1, “Indolinone derivatives” (Cell Therapeutics Europe S.r.I, priority 2004, published 2005).
